Laboratory results taken from PMC10739574 (Bioconjugate Chemistry, 2023).

Biological target: Recombinant FKBP12 (Homo sapiens, UniProt P62942)
Test: Pure protein target engagement assay
Assay type: binding

Chain of Recombinant FKBP12 (P62942 whole entry): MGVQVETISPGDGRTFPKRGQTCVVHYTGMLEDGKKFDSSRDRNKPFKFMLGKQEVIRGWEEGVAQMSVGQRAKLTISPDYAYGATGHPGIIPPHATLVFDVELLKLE

C#CCCC1(CC[C@H](NC(=O)NCCCCCCNC(=O)NCCNC(=O)COc2cccc([C@@H](CCc3ccc(OC)c(OC)c3)OC(=O)[C@@H]3CCCCN3C(=O)C(=O)C(C)(C)CC)c2)C(N)=O)N=N1.O=C(O)C(F)(F)F [Compound 3]
Labeling of FKBP12 in dilution series (8-point, 5-fold dilution series, UV irradiated): Dose-dependent labeling

C#CCCC1(CC[C@H](NC(=O)NCCCCCCNC(=O)NCCN)C(N)=O)N=N1 [Compound 7, (S)-16-amino-2-(2-(3-(but-3-yn-1-yl)-3H-diazirin-3-yl)ethyl)-4,13-dioxo-3,5,12,14-tetraazahexadecanamide]
Nonspecific labeling of FKBP12 (crude linker, 10 and 40 µM, negative control): not seen

CO[C@H]1C[C@@H]2CC[C@@H](C)[C@@](O)(O2)C(=O)C(=O)N2CCCC[C@H]2C(=O)O[C@H]([C@H](C)C[C@@H]2CC[C@@H](O)[C@H](OC)C2)CC(=O)[C@H](C)/C=C(\C)[C@@H](O)[C@@H](OC)C(=O)[C@H](C)C[C@H](C)/C=C/C=C/C=C/1C [rapamycin, reference compound]
Competition of PAL probe interaction with FKBP12 (rapamycin 10 µM pretreatment, purified and crude probes 10 µM): prevented interaction with the PAL probes

C#CCCC1(CC[C@H](NC(=O)NCCCCCCNC(=O)NCCNC(=O)COc2cccc([C@@H](CCc3ccc(OC)c(OC)c3)OC(=O)[C@H]3CCCN3C(=O)C(=O)C(C)(C)CC)c2)C(N)=O)N=N1.O=C(O)C(F)(F)F [Compound 6]
Fluorescent intensity of the bands (crude probes 10 µM, comparison): brighter than crude 3
